Test [1] concerns the target T1, CB2 (Homo sapiens, UniProt P34972).
T1 construct: gene CNR2; co-expressed with beta-arrestin 2 fused to the complementary fragment
In words: NanoLuc complementation beta-arrestin […] recruitment, live cells. The format is cell-based. To be noted: read-out: CB2 / EC50 (nM) (± 95% CI).

For test [2], the target named is T2, CB1 (Homo sapiens, UniProt P21554).
T2 construct: gene CNR1; co-expressed with beta-arrestin 2 fused to the complementary fragment
Described as above. The format is cell-based. To be noted: read-out: CB1 / EC50 (nM) (± 95% CI).

Molecules are shown by their SMILES.

T1 sequence (P34972 whole entry, the tested form may be a part): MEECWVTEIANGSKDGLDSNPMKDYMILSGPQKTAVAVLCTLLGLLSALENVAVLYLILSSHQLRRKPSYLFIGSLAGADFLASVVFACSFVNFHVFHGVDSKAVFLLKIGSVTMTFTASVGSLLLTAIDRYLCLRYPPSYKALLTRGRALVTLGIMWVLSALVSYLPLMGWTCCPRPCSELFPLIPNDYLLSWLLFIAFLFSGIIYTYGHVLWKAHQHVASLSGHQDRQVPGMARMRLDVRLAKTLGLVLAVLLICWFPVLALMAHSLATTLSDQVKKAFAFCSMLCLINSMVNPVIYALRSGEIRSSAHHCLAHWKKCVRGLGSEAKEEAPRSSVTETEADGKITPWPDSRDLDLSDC
T2 sequence (P21554 whole entry, the tested form may be a part): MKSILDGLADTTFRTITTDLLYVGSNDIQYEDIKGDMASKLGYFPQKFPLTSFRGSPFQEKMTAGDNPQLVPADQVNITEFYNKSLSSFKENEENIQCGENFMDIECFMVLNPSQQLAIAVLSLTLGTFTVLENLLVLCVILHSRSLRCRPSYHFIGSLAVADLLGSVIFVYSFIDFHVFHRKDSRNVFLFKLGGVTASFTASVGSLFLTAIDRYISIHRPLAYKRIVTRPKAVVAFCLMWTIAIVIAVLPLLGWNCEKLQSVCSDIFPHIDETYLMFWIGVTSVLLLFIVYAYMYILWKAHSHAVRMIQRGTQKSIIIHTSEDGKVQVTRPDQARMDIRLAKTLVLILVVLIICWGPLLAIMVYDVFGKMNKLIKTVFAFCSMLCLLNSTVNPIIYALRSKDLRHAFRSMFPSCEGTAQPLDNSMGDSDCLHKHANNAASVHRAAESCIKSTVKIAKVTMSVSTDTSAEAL

As for `CC(C)[C@@H](NC(=O)c1nn(Cc2ccc(F)cc2)c2ccccc12)C(N)=O` [compound 1, (R)-AB-FUBINACA], the EC50 in test [1] came out at 102 nM; in test [2] it was 1480 nM.

As to `CC(C)[C@H](NC(=O)c1nn(Cc2ccc(F)cc2)c2ccccc12)C(N)=O` [compound 1, N-(2S)-(1-amino-3-methyl-1-oxobutan-2-yl)-1-(4-fluorobenzyl)-1H-indazole-3-carboxamide], the EC50 in test [1] stood at 1.6 nM; in test [2], 12.9 nM.

Take `COC(=O)[C@H](NC(=O)c1nn(Cc2ccc(F)cc2)c2ccccc12)C(C)C` [compound 2, (R)-AMB-FUBINACA]: the EC50 in test [1] was determined as 1.19 nM; in test [2], 55.8 nM.

With `COC(=O)[C@@H](NC(=O)c1nn(Cc2ccc(F)cc2)c2ccccc12)C(C)C` [compound 2, methyl (2S)-2-(1-(4-fluorobenzyl)-1H-indazole-3-carboxamido)-3-methylbutanoate], the EC50 turned out to be 0.77 nM in test [1] and 9.11 nM in test [2].

Consider `COC(=O)[C@H](NC(=O)c1nn(CCCCCF)c2ccccc12)C(C)(C)C` [compound 3, (R)-5F-MDMB-PINACA], for which the EC50 amounted to 6.87 nM in test [1] and 131 nM in test [2].

As for `COC(=O)[C@@H](NC(=O)c1nn(CCCCCF)c2ccccc12)C(C)(C)C` [compound 3, (S)-5F-MDMB-PINACA], the EC50 in test [1] is 1.46 nM; in test [2] it was 1.78 nM.

With `CC(C)[C@@H](NC(=O)c1nn(CC2CCCCC2)c2ccccc12)C(N)=O` [compound 4, (R)-AB-CHMINACA], the values for the EC50 in test [1] and in test [2] were 33.6 nM and 319 nM, respectively.

Regarding `CC(C)[C@H](NC(=O)c1nn(CC2CCCCC2)c2ccccc12)C(N)=O` [compound 4, N-(2S)-(1-amino-3-methyl-1-oxobutan-2-yl)-1-(cyclohexylmethyl)-1H-indazole-3-carboxamide], the EC50 in test [1] was found to be 1.75 nM; in test [2] it was 6.16 nM.

On to `CCCCCn1cc(C(=O)c2cccc3ccccc23)c2ccccc21` [compound 19, JWH-018, reference compound], for which the EC50 in test [1] was found to be 9.71 nM; in test [2], 45.1 nM.

Values taken from PMC6532652, “Enantiospecific Synthesis, Chiral Separation, and Biological Activity of Four Indazole-3-Carboxamide-Type Synthetic Cannabinoid Receptor Agonists and Their Detection in Seized Drug Samples” (Frontiers in Chemistry, 2019).
